Assay results from patent US20210255184A1, “Biosensor Device and Methods” (The New Zealand Institute for Plant and Food Research …, priority 2018, published 2021).

Legend:
Or22a = target: T1, Or22a (Drosophila melanogaster, UniProt P81909); experiment: GFET sensor, Or22a liposomes; assay type: biochemical; settings: Table 4, GFET
T1 construct: his-tag; made in house; host or cells: baculovirus-infected Sf9 cells
T1 sequence (P81909 1-397): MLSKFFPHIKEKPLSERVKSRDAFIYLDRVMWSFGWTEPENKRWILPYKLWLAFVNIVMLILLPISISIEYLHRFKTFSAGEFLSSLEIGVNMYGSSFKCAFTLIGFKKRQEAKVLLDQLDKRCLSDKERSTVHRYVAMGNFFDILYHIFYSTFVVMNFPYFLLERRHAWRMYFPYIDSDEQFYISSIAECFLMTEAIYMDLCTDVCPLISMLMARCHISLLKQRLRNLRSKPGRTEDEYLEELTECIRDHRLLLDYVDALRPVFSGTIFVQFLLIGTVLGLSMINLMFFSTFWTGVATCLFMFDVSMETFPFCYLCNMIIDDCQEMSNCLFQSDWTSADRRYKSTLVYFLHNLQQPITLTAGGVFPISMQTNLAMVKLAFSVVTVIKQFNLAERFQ
Source text: (§1) The GFETs used in this study were fabricated from a predeposited graphene film on 300 nm SiO2 coated Si substrate from ACS Suppliers, USA. The FETs consist of a channel with dimensions of 100 μm width and […]. The key steps involved in fabricating the GFET on a Si/SiO2 substrate is schematically illustrated in FIG. 12. The source and drain electrodes were defined by photolithography and formed by successive deposition of Cr and Au. Both the drain and source electrodes were then encapsulated using AZ1518 photoresist and a channel with dimensions of 100 μm width and 10 μm length was left open to the environment for gating and functionalisation.
(§2) The OR liposomes were functionalised onto the graphene surface via a non-covalent route using PBASE as the molecular linker as shown in FIG. 13. The OR liposomes were diluted at 1:10 ratio with 1×PBS (pH7.4). The cleaned GFETs were immersed in 1 mM PBASE solution in methanol for 1 hour. […]
(§3) Electrical sensor measurements of OR liposome functionalised GFETs were carried out using top liquid gate morphology as shown in the schematic in FIG. 15 (a). […] The transfer characteristics of the different graphene FETs (FIG. 15 (b) to (g)) were measured at Vds=1 mV while the liquid gate voltage Vlg was swept from −0.5 V to 1 V with an interval of 20 mV. […]

Or10a = target: T2, Or10a (Drosophila melanogaster, UniProt Q9VYZ1); experiment: GFET sensor, Or10a liposomes; assay type: biochemical; settings: Table 4, GFET
T2 construct: his-tag; made in house; host or cells: baculovirus-infected Sf9 cells
T2 sequence (Q9VYZ1 1-406): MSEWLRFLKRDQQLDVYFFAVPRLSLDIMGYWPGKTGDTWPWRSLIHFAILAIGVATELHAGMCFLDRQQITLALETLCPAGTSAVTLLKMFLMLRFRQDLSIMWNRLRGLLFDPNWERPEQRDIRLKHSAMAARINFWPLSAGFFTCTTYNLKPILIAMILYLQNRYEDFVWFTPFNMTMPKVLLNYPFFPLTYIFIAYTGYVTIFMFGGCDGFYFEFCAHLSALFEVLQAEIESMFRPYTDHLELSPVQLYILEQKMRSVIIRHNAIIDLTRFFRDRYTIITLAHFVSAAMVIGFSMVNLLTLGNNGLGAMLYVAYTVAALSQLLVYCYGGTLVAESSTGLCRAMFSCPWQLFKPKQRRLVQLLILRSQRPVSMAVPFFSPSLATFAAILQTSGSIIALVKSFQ
Source text: as §1, §2, §3

Structure (SMILES) | Detection Range (Or22a) | EC50 (Or22a) [pM] | Detection Range (Or10a) | EC50 (Or10a) [pM]
CCCCCC(=O)OC [methyl hexanoate] | 10^−12 to 10^−8 M | 12.1 |  | 
COC(=O)c1ccccc1O [methyl salicylate] |  |  | 10^−12 to 10^−8 M | 15.6
